Laboratory results published in US20110306597A1, “Nicotinamide Derivatives” (priority 2008, published 2011).

Target: human recombinant H-PGDS (Homo sapiens, UniProt O60760)
Assay: Fluorescence Intensity h-PGDS TBA Enzyme Assay
Assay type: biochemical
Conditions: 1:175,000 human recombinant H-PGDS, highest inhibitor concentration typically 1 μM
How it was run: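 Readout is PGH2 depletion: after a 42 s reaction with 5.0 μM PGH2 and 2.5 mM glutathione (pH 8.0 Tris, 10 min inhibitor preincubation), Fe(II) converts leftover PGH2 to MDA, which forms a fluorescent TBA complex. IC50s come from 11-point, 3-fold duplicate curves, 4-parameter fit.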

human recombinant H-PGDS, sequence (O60760 whole entry): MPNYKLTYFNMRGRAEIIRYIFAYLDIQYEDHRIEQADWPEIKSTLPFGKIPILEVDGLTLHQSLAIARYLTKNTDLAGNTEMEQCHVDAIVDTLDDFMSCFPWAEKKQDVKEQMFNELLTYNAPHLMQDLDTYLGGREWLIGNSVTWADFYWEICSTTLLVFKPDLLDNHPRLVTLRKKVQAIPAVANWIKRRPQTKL

Structure (SMILES)	IC50
COc1ccc(C(CNC(=O)c2ccc(-c3cccc(F)c3)nc2)N2CCOCC2)cc1 (centres unmarked) [Example 190, 6-(3-Fluorophenyl)-N-[2-(4-methoxyphenyl)-2-morpholin-4-ylethyl]nicotinamide]	1330 nM
COC(C)(C)CNC(=O)c1ccc(-c2cccc(F)c2)nc1 [Example 194, 6-(3-Fluorophenyl)-N-(2-methoxy-2-methylpropyl)nicotinamide]	376 nM
O=C(NCc1noc(C(=O)N2CC[C@H](O)C2)n1)c1ccc(-c2cccc(F)c2)nc1 [Example 199, 6-(3-Fluorophenyl)-N-[(5-{[(3S)-3-hydroxypyrrolidin-1-yl]carbonyl}-1,2,4-oxadiazol-3-yl)methyl]nicotinamide]	622 nM
O=C(NCCc1nnc(-c2ccc(F)cc2)o1)c1ccc(-c2cccc(F)c2)nc1 [Example 200, 6-(3-Fluorophenyl)-N-{2-[5-(4-fluorophenyl)-1,3,4-oxadiazol-2-yl]ethyl}nicotinamide]	447 nM
CCOC(=O)Cc1noc(CNC(=O)c2ccc(-c3cccc(F)c3)nc2)n1 [Example 201, Ethyl {5-[({[6-(3-fluorophenyl)pyridin-3-yl]carbonyl}amino)methyl]-1,2,4-oxadiazol-3-yl}acetate]	59.2 nM
COc1ccc(C(NC(=O)c2ccc(-c3cccc(F)c3)nc2)C2CC2)cc1 (centres unmarked) [Example 202, N-[Cyclopropyl(4-methoxyphenyl)methyl]-6-(3-fluorophenyl)nicotinamide]	99.9 nM
Cc1cc(CNC(=O)c2ccc(-c3cccc(F)c3)nc2)c(C(F)(F)F)o1 [Example 203, 6-(3-Fluorophenyl)-N-{[5-methyl-2-(trifluoromethyl)-3-furyl]methyl}nicotinamide]	150 nM
COc1ccc(C(CNC(=O)c2ccc(-c3cccc(F)c3)nc2)N(C)C)cc1 (centres unmarked) [Example 204, N-[2-(Dimethylamino)-2-(4-methoxyphenyl)ethyl]-6-(3-fluorophenyl)nicotinamide]	125 nM
O=C(NCc1noc(C(=O)N2CC[C@@H](O)C2)n1)c1ccc(-c2cccc(F)c2)nc1 [Example 211, 6-(3-Fluorophenyl)-N-[(5-{[(3R)-3-hydroxypyrrolidin-1-yl]carbonyl}-1,2,4-oxadiazol-3-yl)methyl]nicotinamide]	362 nM
N#CC(NC(=O)c1ccc(-c2cccc(F)c2)nc1)C(=O)NCCN1CCOCC1 (centres unmarked) [Example 212, N-{1-Cyano-2-[(2-morpholin-4-ylethyl)amino]-2-oxoethyl}-6-(3-fluorophenyl)nicotinamide]	297 nM
O=C(NCCN1CCCCC1CO)c1ccc(-c2cccc(F)c2)nc1 (centres unmarked) [Example 215, 6-(3-Fluorophenyl)-N-{2-[2-(hydroxymethyl)piperidin-1-yl]ethyl}nicotinamide]	101 nM
CC(C)OCCCN1CC(CNC(=O)c2ccc(-c3cccc(F)c3)nc2)OCC1=O (centres unmarked) [Example 216, 6-(3-Fluorophenyl)-N-{[4-(3-isopropoxypropyl)-5-oxomorpholin-2-yl]methyl}nicotinamide]	128 nM
COC(=O)[C@H](C)NC(=O)c1ccc(-c2cccc(C)c2)nc1 [Example 219, Methyl N-{[6-(3-methylphenyl)pyridin-3-yl]carbonyl}alaninate]	89.4 nM
CCOC(=O)C1(NC(=O)c2ccc(-c3cccc(C)c3)nc2)CCOCC1 [Example 220, Ethyl 4-({[6-(3-methylphenyl)pyridin-3-yl]carbonyl}amino)tetrahydro-2H-pyran-4-carboxylate]	93.4 nM
CCOC(=O)CC(NC(=O)c1ccc(-c2cccc(C)c2)nc1)c1ccc(Cl)cc1 (centres unmarked) [Example 221, Ethyl 3-(4-chlorophenyl)-3-({[6-(3-methylphenyl)pyridin-3-yl]carbonyl}amino)propanoate]	55.9 nM
Cc1cccc(-c2ccc(C(=O)NCc3nc(CS(C)(=O)=O)no3)cn2)c1 [Example 222, 6-(3-Methylphenyl)-N-({3-[(methylsulfonyl)methyl]-1,2,4-oxadiazol-5-yl}methyl)nicotinamide]	351 nM
COC(=O)CCNC(=O)c1ccc(-c2cccc(C)c2)nc1 [Example 223, Methyl N-{[6-(3-methylphenyl)pyridin-3-yl]carbonyl}-beta-alaninate]	44.1 nM
Cc1cccc(-c2ccc(C(=O)NCCN3CCCCC3=O)cn2)c1 [Example 224, 6-(3-Methylphenyl)-N-[2-(2-oxopiperidin-1-yl)ethyl]nicotinamide]	56.4 nM
Cc1cccc(-c2ccc(C(=O)NCCN3CCCCC3)cn2)c1 [Example 225, 6-(3-Methylphenyl)-N-(2-piperidin-1-ylethyl)nicotinamide]	265 nM
Cc1ccc(CN2CCC(NC(=O)c3ccc(-c4cccc(C)c4)nc3)C2=O)cc1 (centres unmarked) [Example 227, N-[1-(4-Methylbenzyl)-2-oxopyrrolidin-3-yl]-6-(3-methylphenyl)nicotinamide]	62.2 nM
COC(=O)CNC(=O)[C@H](C)NC(=O)c1ccc(-c2cccc(C)c2)nc1 [Example 229, Methyl N-{[6-(3-methylphenyl)pyridin-3-yl]carbonyl}-L-alanylglycinate]	125 nM

Stronger by IC50, values ahead:

IC50	Structure (SMILES)
34.6 nM	O=C(NCCN1CCOC1=O)c1ccc(-c2cccc(F)c2)nc1 [Example 186, 6-(3-Fluorophenyl)-N-[2-(2-oxo-1,3-oxazolidin-3-yl)ethyl]nicotinamide]
14.5 nM	COC(=O)CCNC(=O)c1ccc(-c2cccc(F)c2)nc1 [Example 187, Methyl N-{[6-(3-fluorophenyl)pyridin-3-yl]carbonyl}-beta-alaninate]
16.3 nM	CCC1CCN(CCNC(=O)c2ccc(-c3cccc(F)c3)nc2)CC1 [Example 188, N-[2-(4-Ethylpiperidin-1-yl)ethyl]-6-(3-fluorophenyl)nicotinamide]
6.74 nM	CS(=O)(=O)c1cccc(CNC(=O)c2ccc(-c3cccc(F)c3)nc2)c1 [Example 189, 6-(3-Fluorophenyl)-N-[3-(methylsulfonyl)benzyl] nicotinamide]
2.33 nM	O=C(NC1CCOCC1)c1ccc(-c2cccc(F)c2)nc1 [Example 191, 6-(3-Ffluorophenyl)-N-(tetrahydro-2H-pyran-4-yl)nicotinamide]
9.04 nM	CCOC(=O)CCCNC(=O)c1ccc(-c2cccc(F)c2)nc1 [Example 192, Ethyl 4-({[6-(3-fluorophenyl)pyridin-3-yl]carbonyl}amino)butanoate]
2.23 nM	Cc1ccc(CN2CCC(NC(=O)c3ccc(-c4cccc(F)c4)nc3)C2=O)cc1 (centres unmarked) [Example 193, 6-(3-Fluorophenyl)-N-[1-(4-methylbenzyl)-2-oxopyrrolidin-3-yl]nicotinamide]
12.1 nM	O=C(NCCN1CCCCC1)c1ccc(-c2cccc(F)c2)nc1 [Example 195, 6-(3-Fluorophenyl)-N-(2-piperidin-1-ylethyl)nicotinamide]
12.4 nM	COc1ccc(C(N)CC(=O)NC(=O)c2ccc(-c3cccc(F)c3)nc2)cc1OC (centres unmarked) [Example 196, N-[3-Amino-3-(3,4-dimethoxyphenyl)propanoyl]-6-(3-fluorophenyl)nicotinamide]
34 nM	O=C(NCCCNc1ccccn1)c1ccc(-c2cccc(F)c2)nc1 [Example 197, 6-(3-Fluorophenyl)-N-[3-(pyridin-2-ylamino)propyl]nicotinamide]
38.7 nM	CC(O)CNC(=O)c1ccc(-c2cccc(F)c2)nc1 (centres unmarked) [Example 198, 6-(3-Fluorophenyl)-N-(2-hydroxypropyl)nicotinamide]
29.9 nM	CCOC(=O)Cc1ccc(CNC(=O)c2ccc(-c3cccc(F)c3)nc2)cc1 [Example 205, Ethyl {4-[({[6-(3-fluorophenyl)pyridin-3-yl]carbonyl}amino)methyl]phenyl}acetate]
16.6 nM	CC(C)Cc1nnc(CCNC(=O)c2ccc(-c3cccc(F)c3)nc2)o1 [Example 206, 6-(3-Fluorophenyl)-N-[2-(5-isobutyl-1,3,4-oxadiazol-2-yl)ethyl]nicotinamide]
27.1 nM	O=C(NCCc1nnc(C2CC2)o1)c1ccc(-c2cccc(F)c2)nc1 [Example 207, N-[2-(5-Cyclopropyl-1,3,4-oxadiazol-2-yl)ethyl]-6-(3-fluorophenyl)nicotinamide]
18.3 nM	COc1ccc2nc(CCNC(=O)c3ccc(-c4cccc(F)c4)nc3)[nH]c2c1 [Example 208, 6-(3-Fluorophenyl)-N-[2-(6-methoxy-1H-benzimidazol-2-yl)ethyl]nicotinamide]
13.1 nM	CCOC(=O)CCNC(=O)c1ccc(-c2cccc(F)c2)nc1 [Example 209, Ethyl N-{[6-(3-fluorophenyl)pyridin-3-yl]carbonyl}-beta-alaninate]
39.2 nM	O=C(NC(CN1CCOCC1)c1ccccc1)c1ccc(-c2cccc(F)c2)nc1 (centres unmarked) [Example 210, 6-(3-Fluorophenyl)-N-(2-morpholin-4-yl-1-phenylethyl)nicotinamide]
28.3 nM	Cc1cc(C)cc(-c2nnc(CCNC(=O)c3ccc(-c4cccc(F)c4)nc3)o2)c1 [Example 213, N-{2-[5-(3,5-Dimethylphenyl)-1,3,4-oxadiazol-2-yl]ethyl}-6-(3-fluorophenyl)nicotinamide]
20.7 nM	O=C(NCCCCNC(=O)c1ccc(-c2cccc(F)c2)nc1)OCc1ccccc1 [Example 214, Benzyl [4-({[6-(3-fluorophenyl)pyridin-3-yl]carbonyl}amino)butyl] carbamate]
39.9 nM	CCOC(=O)c1nnc(CNC(=O)c2ccc(-c3cccc(F)c3)nc2)o1 [Example 217, Ethyl 5-[({[6-(3-fluorophenyl)pyridin-3-yl]carbonyl}amino)methyl]-1,3,4-oxadiazole-2-carboxylate]
27.6 nM	CNS(=O)(=O)c1ccc(CNC(=O)c2ccc(-c3cccc(C)c3)nc2)cc1 [Example 218, N-{4-[(Methylamino)sulfonyl]benzyl}-6-(3-methylphenyl)nicotinamide]
12.4 nM	Cc1cccc(-c2ccc(C(=O)NCc3ccccc3C)cn2)c1 [Example 226, N-(2-Methylbenzyl)-6-(3-methylphenyl)nicotinamide]
6.51 nM	Cc1cccc(-c2ccc(C(=O)Nc3ccncc3)cn2)c1 [Example 228, 6-(3-Methylphenyl)-N-pyridin-4-ylnicotinamide]
